Laboratory results from patent US8748415B2 (priority 2011, dated 2014).

Each compound was assayed on recombinant NL4-3 virus (Renilla luciferase in nef, Gag P373S) (assay: HIV cell culture assay (luciferase activity in MT-2 cells infected with NLRluc recombinant virus)). Settings: NL43, MT-2 cells infected 4-5 days with NLRluc recombinant virus, class symbol.
Format: cell-based
Summary of the method: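 MT-2 cells in RPMI/10% FBS were infected with recombinant NL4-3 (NLRluc), produced by 293T transfection and titered in MT-2 by luciferase. Serial inhibitor dilutions were present throughout a 4–5 day infection. Antiviral activity was quantified as Renilla luciferase signal via a modified Dual Luciferase read.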

SMILES	EC50 [µM]
C=C(C)[C@@H]1CC[C@]2(CNCC(OCC)OCC)CC[C@]3(C)[C@H](CC[C@@H]4[C@@]5(C)CC=C(c6ccc(C(=O)O)cc6)C(C)(C)[C@@H]5CC[C@]43C)[C@@H]12 [Example 42, 4-((1R,3aS,5aR,5bR,7aR,11aS,11bR,13aR,13bR)-3a-((2,2-diethoxyethylamino)methyl)-5a,5b,8,8,11a-pentamethyl-1-(prop-1-en-2-yl)-2,3,3a,4,5,5a,5b,6,7,7a,8,11,11a,11b,12,13,13a,13b-octadecahydro-1H-cyclopenta[a]chrysen-9-yl)benzoic acid]	< 0.1
C=C(C)[C@@H]1CC[C@]2(CNCCC(=O)N3CCC[C@@H]3C(=O)O)CC[C@]3(C)[C@H](CC[C@@H]4[C@@]5(C)CC=C(c6ccc(C(=O)O)cc6)C(C)(C)[C@@H]5CC[C@]43C)[C@@H]12 [Example 100, (R)-1-(3-(((1R,3aS,5aR,5bR,7aR,11aS,11bR,13aR,13bR)-9-(4-carboxyphenyl)-5a,5b,8,8,11a-pentamethyl-1-(prop-1-en-2-yl)-2,3,3a,4,5,5a,5b,6,7,7a,8,11,11a,11b,12,13,13a,13b-octadecahydro-1H-cyclopenta[a]chrysen-3a-yl)methylamino)propanoyl)pyrrolidine-2-carboxylic acid]	< 0.1
C=C(C)[C@@H]1CC[C@]2(CNCCCN3CCCC3)CC[C@]3(C)[C@H](CC[C@@H]4[C@@]5(C)CC=C(c6ccc(C(=O)O)cc6)C(C)(C)[C@@H]5CC[C@]43C)[C@@H]12 [Example 68, 4-((1R,3aS,5aR,5bR,7aR,11aS,11bR,13aR,13bR)-5a,5b,8,8,11a-pentamethyl-1-(prop-1-en-2-yl)-3a-((3-(pyrrolidin-1-yl)propylamino)methyl)-2,3,3a,4,5,5a,5b,6,7,7a,8,11,11a,11b,12,13,13a,13b-octadecahydro-1H-cyclopenta[a]chrysen-9-yl)benzoic acid]	< 0.1
C=C(C)[C@@H]1CC[C@]2(CNCCN(CCO)CCO)CC[C@]3(C)[C@H](CC[C@@H]4[C@@]5(C)CC=C(c6ccc(C(=O)O)cc6)C(C)(C)[C@@H]5CC[C@]43C)[C@@H]12 [Example 24, 4-((1R,3aS,5aR,5bR,7aR,11aS,11bR,13aR,13bR)-3a-((2-(bis(2-hydroxyethyl)amino)ethylamino)methyl)-5a,5b,8,8,11a-pentamethyl-1-(prop-1-en-2-yl)-2,3,3a,4,5,5a,5b,6,7,7a,8,11,11a,11b,12,13,13a,13b-octadecahydro-1H-cyclopenta[a]chrysen-9-yl)benzoic acid]	< 0.1
C=C(C)[C@@H]1CC[C@]2(CNCCN3CCCC3=O)CC[C@]3(C)[C@H](CC[C@@H]4[C@@]5(C)CC=C(c6ccc(C(=O)O)cc6)C(C)(C)[C@@H]5CC[C@]43C)[C@@H]12 [Example 34, 4-((1R,3aS,5aR,5bR,7aR,11aS,11bR,13aR,13bR)-5a,5b,8,8,11a-pentamethyl-3a-((2-(2-oxopyrrolidin-1-yl)ethylamino)methyl)-1-(prop-1-en-2-yl)-2,3,3a,4,5,5a,5b,6,7,7a,8,11,11a,11b,12,13,13a,13b-octadecahydro-1H-cyclopenta[a]chrysen-9-yl)benzoic acid]	< 0.1
C=C(C)[C@@H]1CC[C@]2(CNCCn3ccnc3C)CC[C@]3(C)[C@H](CC[C@@H]4[C@@]5(C)CC=C(c6ccc(C(=O)O)cc6)C(C)(C)[C@@H]5CC[C@]43C)[C@@H]12 [Example 59, 4-((1R,3aS,5aR,5bR,7aR,11aS,11bR,13aR,13bR)-5a,5b,8,8,11a-pentamethyl-3a-((2-(2-methyl-1H-imidazol-1-yl)ethylamino)methyl)-1-(prop-1-en-2-yl)-2,3,3a,4,5,5a,5b,6,7,7a,8,11,11a,11b,12,13,13a,13b-octadecahydro-1H-cyclopenta[a]chrysen-9-yl)benzoic acid]	< 0.1
C=C(C)[C@@H]1CC[C@]2(CNC(=O)[C@@H]3CCCN3C)CC[C@]3(C)[C@H](CC[C@@H]4[C@@]5(C)CC=C(c6ccc(C(=O)O)cc6)C(C)(C)[C@@H]5CC[C@]43C)[C@@H]12 [Example 150, 4-((1R,3aS,5aR,5bR,7aR,11aS,11bR,13aR,13bR)-5a,5b,8,8,11a-pentamethyl-3a-(((S)-1-methylpyrrolidine-2-carboxamido)methyl)-1-(prop-1-en-2-yl)-2,3,3a,4,5,5a,5b,6,7,7a,8,11,11a,11b,12,13,13a,13b-octadecahydro-1H-cyclopenta[a]chrysen-9-yl)benzoic acid]	< 0.1
C=C(C)[C@@H]1CC[C@]2(CNCCCN(CCO)CCO)CC[C@]3(C)[C@H](CC[C@@H]4[C@@]5(C)CC=C(c6ccc(C(=O)O)cc6)C(C)(C)[C@@H]5CC[C@]43C)[C@@H]12 [Example 60, 4-((1R,3aS,5aR,5bR,7aR,11aS,11bR,13aR,13bR)-3a-((3-(bis(2-hydroxyethyl)amino)propylamino)methyl)-5a,5b,8,8,11a-pentamethyl-1-(prop-1-en-2-yl)-2,3,3a,4,5,5a,5b,6,7,7a,8,11,11a,11b,12,13,13a,13b-octadecahydro-1H-cyclopenta[a]chrysen-9-yl)benzoic acid]	< 0.1
C=C(C)[C@@H]1CC[C@]2(CNC(=O)OCCCN3CCS(=O)(=O)CC3)CC[C@]3(C)[C@H](CC[C@@H]4[C@@]5(C)CC=C(c6ccc(C(=O)O)cc6)C(C)(C)[C@@H]5CC[C@]43C)[C@@H]12 [Example 164, 4-((1R,3aS,5aR,5bR,7aR,11aS,11bR,13aR,13bR)-3a-((((3-(1,1-dioxido-4-thiomorpholinyl)propoxy)carbonyl)amino)methyl)-1-isopropenyl-5a,5b,8,8,11a-pentamethyl-2,3,3a,4,5,5a,5b,6,7,7a,8,11,11a,11b,12,13,13a,13b-octadecahydro-1H-cyclopenta[a]chrysen-9-yl)benzoic acid]	< 0.1
C=C(C)[C@@H]1CC[C@]2(CNCCC(=O)N3CCOCC3)CC[C@]3(C)[C@H](CC[C@@H]4[C@@]5(C)CC=C(c6ccc(C(=O)O)cc6)C(C)(C)[C@@H]5CC[C@]43C)[C@@H]12 [Example 107, 4-((1R,3aS,5aR,5bR,7aR,11aS,11bR,13aR,13bR)-5a,5b,8,8,11a-pentamethyl-3a-((3-morpholino-3-oxopropylamino)methyl)-1-(prop-1-en-2-yl)-2,3,3a,4,5,5a,5b,6,7,7a,8,11,11a,11b,12,13,13a,13b-octadecahydro-1H-cyclopenta[a]chrysen-9-yl)benzoic acid]	< 0.1

Same assay, conditions: NL43, MT-2 cells infected 4-5 days with NLRluc recombinant virus, numeric value

SMILES	EC50 [µM]
C=C(C)[C@@H]1CC[C@]2(CNCCc3ccccn3)CC[C@]3(C)[C@H](CC[C@@H]4[C@@]5(C)CC=C(c6ccc(C(=O)O)cc6)C(C)(C)[C@@H]5CC[C@]43C)[C@@H]12 [Example 5, 4-((1R,3aS,5aR,5bR,7aR,11aS,11bR,13aR,13bR)-5a,5b,8,8,11a-pentamethyl-1-(prop-1-en-2-yl)-3a-((2-(pyridin-2-yl)ethylamino)methyl)-2,3,3a,4,5,5a,5b,6,7,7a,8,11,11a,11b,12,13,13a,13b-octadecahydro-1H-cyclopenta[a]chrysen-9-yl)benzoic acid]	0.02
